{
  "source": "patent US6380198B1",
  "about": "(Laboratoire Medidom S.A., priority 1997, dated 2002)",
  "key": {"σ-1 receptors [1]": {"target": "T1, σ-1 receptors (Oryctolagus cuniculus, UniProt G1SD54)", "T1 construct": "cell membranes obtained from the irido-ciliary body complex; from tissue; host or cells: rabbit irido-ciliary body, P2 membrane fraction", "T1 sequence (G1SD54 1-223)": "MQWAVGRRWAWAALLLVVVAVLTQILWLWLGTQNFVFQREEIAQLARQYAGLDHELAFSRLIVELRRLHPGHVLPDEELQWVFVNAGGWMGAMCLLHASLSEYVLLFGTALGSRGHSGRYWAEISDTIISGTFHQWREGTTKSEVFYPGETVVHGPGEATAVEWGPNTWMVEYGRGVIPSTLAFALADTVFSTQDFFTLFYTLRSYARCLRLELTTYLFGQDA", "assay": "[3H](+)-pentazocine receptor binding and competitive binding on irido-ciliary body membranes", "design": "species or system rabbit (New Zealand albino)", "conditions": "300 μg membrane protein, 37° C., 150 minutes", "description": "In order to identify the presence of a receptor sites in the eye the technique of “receptor binding” has been exploited. The latter has been carried out on cell membranes obtained from the irido-ciliary body complex. The irido-ciliary body complex had been explanted, after sacrifice, from male albino rabbits of the New Zealand strain. The tissue was homogenised in buffer and a fraction rich in cell membrane proteins was isolated, obtained by centrifugation. […] Aliquots of the said fraction of the homogenate containing 300 μg of total proteins were incubated with scalar amounts of [^3H](+)-pentazocine (which is used, for experimental purposes only, as a a ligand). The reaction was carried out at 37° C. for 150 minutes and then, after filtering, the radioactivity left on the filters was measured by liquid scintillation."}, "σ-1 receptors [2]": {"target": "T1, σ-1 receptors", "assay": "Inhibition of 3H(+)-N-allyl-nor-methazocine binding to irido-ciliary body membranes", "design": "species or system rabbit (New Zealand albino)", "conditions": "rabbit irido-ciliary body P2 membranes, 300 μg protein, 37° C., 150 minutes, duplicate", "method": "The receptor binding technique was carried out on cell membranes obtained from the irido-ciliary body complex explanted, after sacrifice, from male albino rabbits of the New Zealand strain (Charles River Italiana, of Calco (CO)). The tissue was homogenised in buffer and the P2, fraction, rich in cell membrane proteins, was isolated. […] The La total protein concentration was determined with the Lowry method.\nThe non specific binding was evaluated in presence of haloperidol.\nAll tests were carried out in duplicate. The reaction was maintained at 37° C. for 150 minutes, followed by filtration on WhatmannGF/B filters. The radioactivity left on the filters was measured by liquid scintillation spectrometry."}, "[3]": {"tested_on": "intraocular pressure of rabbits showing normal baseline intraocular pressure", "assay": "Intraocular pressure in rabbits with normal intraocular pressure after topical instillation", "type": "in vivo, rabbit (Vienna Blue, pigmented)", "conditions": "Table 2, 50 μl eye-drops: 0.050% flunarizine, 0.5% timolol, or flunarizine/beta-blocker combinations", "experimental": "The effects of the agent of the invention on the intraocular pressure of rabbits showing normal baseline intraocular pressure were evaluated in comparison with the action of a placebo, and with that of various other calcium channel blocking agents. Female pigmented rabbits of the Vienna Blue strain were used (supplied by Charles River Italiana, of Calco (CO)). The age of the animals at the time of starting the experimentation was 9 weeks, and their weight was 2.0-2.5 kg.\nThe choice of a species with pigmented iris is due to the fact that the latter represents a reliable model for the evaluation of possible modifications of the intraocular pressure caused by the products under test. The strain chosen is genetically defined, so as to limit to a minimum the variability of the biological characteristics between one animal and the other.\nThe animals were kept in rooms maintained under constant and controlled conditions of temperature and humidity, illuminated for 12 hours a day with artificial light and with continuous renovation of the air. The feed consisted of a standard diet having a constant and known composition, and both feed and water were available ad libitum during the whole period of the test. The rabbits were stabled for 21 days before starting the test, so as to allow a sufficient acclimatation and to suitably evaluate the health conditions of the rabbits. Each experimental group consisted of 4 animals, which were allotted to the treatment groups in a randomised way.\nEach different group of animals received, by instillation in the right conjunctival fornix, 50 μl of the following products:\nThe weight concentrations of the various agents under test are chosen so as to correspond to the same molar concentration.\nThe pressure in the treated eye was measured by flattening tonometer (TonopenXL®, Mentor), 15 minutes before the instillation of the eyerops (time 0) and then 30, 60, 90, 120, 180 and 240 minutes after. As a local anaesthetic, 5 minutes before carrying out each measurement 25 μl of a commercial ophthalmic solution containing 0.4% oxybuprocaine hydrochloride (Novesine®, Sandoz) was instilled. To carry out the measurement the rabbits were placed in a suitably designed cage, that prevents any sudden movement of the animal under test.\nFor each animal and at each of the times listed above the average of three subsequent measurements was calculated and recorded, each one said measurements being made after 1 minute from the previous one. The intraocular pressure values at the various times were compared with the values obtained before the treatment, by means of the Student's “t” test. The comparisons between different groups were made by processing the data by the variance analysis (ANOVA) and, where possible, by the Student's “t” test for the comparison of two different experimental groups. Values of p<0.05 were considered to be statistically significant."}, "[4]": {"tested_on": "intraocular pressure of rabbits with ocular hypertension", "assay": "Intraocular pressure in rabbits with ocular hypertension induced by α-chymotrypsin", "type": "in vivo, rabbit (Vienna Blue, pigmented)", "conditions": "Table 5, hypertensive rabbits, 50 μl eye-drops: 0.050% flunarizine, 0.5% timolol, or flunarizine/beta-blocker combinations", "experimental": "Rabbits of the same type as those described in the previous section were used for the following tests.\nIn the rabbit, the injection of this enzyme in the posterior chamber causes, after one month from the administration, an effect of ocular hypertension.\nAt the end of the quarantine period the rabbits were anaesthetised by intramuscular administration of ketamine hydrochloride and xylazine hydrochloride (RBI). The right eye was gently pushed outwardly after instilling 25 μl of Novesine® eye-drops, containing oxybuprocaine as an anaesthetic; then, a sterile solution of σ-chymotrypsin (SIGMA, Milan; 150 units in 100 μl of physiologic sterile solution) was injected in the posterior chamber of the right eye by means of a 30G sterile needle. After the administration of the enzyme, the eye was thoroughly washed with physiologic sterile solution in order to remove any traces of α-chymotrypsin which could damage the ocular tissues. Then, 2 drops of a commercial ophthalmic antibiotic solution (Colbiocin®, SIFI S.p.A., containing chloramphenicol, rolitetracycline, colistin methanesulphonate) were instilled. The treatment was carried out 3 times a day (at 8.00 a.m., 12.00 a.m. and 6.00 p.m.) for one week after the administration of α-chymotrypsin. The rabbits were employed in the tests after one month from the induction of ocular hypertension by means of the enzyme.\nThe rabbits, divided also in this case in groups of 4 animals, were treated by instillation of 50 μl of the product under test in the right conjunctival fornix.\nThe intraocular pressure in the treated eye was measured, according to the same procedure as in the previous tests, 15 minutes before the instillation of the eye-drops and 30, 60, 90, 120, 180 and 240 minutes after. The values obtained were statistically analysed according to the criteria mentioned in the foregoing.\nThe experimental conditions were exactly the same as before."}, "[5]": {"conditions": "average ± S.D. of 4 rabbits, 30 min after instillation"}, "[6]": {"conditions": "average ± S.D. of 4 rabbits, 60 min after instillation"}, "[7]": {"conditions": "average ± S.D. of 4 rabbits, 90 min after instillation"}, "[8]": {"conditions": "average ± S.D. of 4 rabbits, 120 min after instillation"}, "[9]": {"conditions": "average ± S.D. of 4 rabbits, 180 min after instillation"}, "[10]": {"conditions": "average ± S.D. of 4 rabbits, 240 min after instillation"}, "[11]": {"conditions": "average ± S.D. of 4 rabbits, time 0 = 15 min before instillation (baseline)"}, "[12]": {"conditions": "individual rabbit, right eye, 30 min after instillation"}, "[13]": {"conditions": "individual rabbit, right eye, 60 min after instillation"}, "[14]": {"conditions": "individual rabbit, right eye, 90 min after instillation"}, "[15]": {"conditions": "individual rabbit, right eye, 120 min after instillation"}, "[16]": {"conditions": "individual rabbit, right eye, 180 min after instillation"}, "[17]": {"conditions": "individual rabbit, right eye, 240 min after instillation"}, "[18]": {"conditions": "individual rabbit, right eye, time 0 = 15 min before instillation (baseline)"}},
  "note": "Values joined by “and” are separate entries in the source; they are usually repeats but may differ in a detail not shown here. Equal entries are not always repeated.",
  "data": [
    {"smiles": "CC(C)=CCN1CC[C@]2(C)c3cc(O)ccc3C[C@H]1[C@H]2C", "note": "[[^3H])(+)-pentazocine, [^3H](+)-pentazocine]", "values": [
      {"measurement": "Binding to receptor sites of the iridociliary body region", "setting": "σ-1 receptors [1]", "value": "selectively binds to receptor sites"}
    ]},
    {"smiles": "COCCOC(=O)C1=C(C)NC(C)=C(C(=O)OC(C)C)C1c1cccc([N+](=O)[O-])c1", "note": "(stereo not drawn) [nimodipine]", "values": [
      {"measurement": "IC50", "setting": "σ-1 receptors [2]", "value": "> 10", "unit": "µM"}
    ]},
    {"smiles": "CC(C)(C)NC[C@H](O)COc1nsnc1N1CCOCC1", "note": "[timolol]", "values": [
      {"measurement": "Intraocular pressure (mmHg) at the time (min): 30, average ± S.D.", "setting": "[3]; [5]", "value": "14.7 ± 0.5", "unit": "mmHg"},
      {"measurement": "Intraocular pressure (mmHg) at the time (min): 60, average ± S.D.", "setting": "[3]; [6]", "value": "13.5 ± 0.6", "unit": "mmHg"},
      {"measurement": "Intraocular pressure (mmHg) at the time (min): 90, average ± S.D.", "setting": "[3]; [7]", "value": "14.5 ± 0.6", "unit": "mmHg"},
      {"measurement": "Intraocular pressure (mmHg) at the time (min): 120, average ± S.D.", "setting": "[3]; [8]", "value": "15.5 ± 0.6", "unit": "mmHg"},
      {"measurement": "Intraocular pressure (mmHg) at the time (min): 180, average ± S.D.", "setting": "[3]; [9]", "value": "16.0 ± 0.6", "unit": "mmHg"},
      {"measurement": "Intraocular pressure (mmHg) at the time (min): 240, average ± S.D.", "setting": "[3]; [10]", "value": "16.0 ± 0.8", "unit": "mmHg"},
      {"measurement": "Intraocular pressure (mmHg) at the time (min): 0, average ± S.D.", "setting": "[3]; [11]", "value": "15.7 ± 0.5", "unit": "mmHg"},
      {"measurement": "Intraocular pressure (mmHg) at the time (min): 30", "setting": "[3]; [12]", "value": "15 mmHg (3×) and 14 mmHg"},
      {"measurement": "Intraocular pressure (mmHg) at the time (min): 60", "setting": "[3]; [13]", "value": "14 mmHg (2×) and 13 mmHg (2×)"},
      {"measurement": "Intraocular pressure (mmHg) at the time (min): 90", "setting": "[3]; [14]", "value": "14 mmHg (2×) and 15 mmHg (2×)"},
      {"measurement": "Intraocular pressure (mmHg) at the time (min): 120", "setting": "[3]; [15]", "value": "15 mmHg (2×) and 16 mmHg (2×)"},
      {"measurement": "Intraocular pressure (mmHg) at the time (min): 180", "setting": "[3]; [16]", "value": "16 mmHg (2×) and 17 mmHg and 15 mmHg"},
      {"measurement": "Intraocular pressure (mmHg) at the time (min): 240", "setting": "[3]; [17]", "value": "16 mmHg (2×) and 17 mmHg and 15 mmHg"},
      {"measurement": "Intraocular pressure (mmHg) at the time (min): 0", "setting": "[3]; [18]", "value": "16 mmHg (3×) and 15 mmHg"},
      {"measurement": "Intraocular pressure (mmHg) at the time (min): 30, average ± S.D.", "setting": "[4]; [5]", "value": "41.7 ± 4.7", "unit": "mmHg"},
      {"measurement": "Intraocular pressure (mmHg) at the time (min): 60, average ± S.D.", "setting": "[4]; [6]", "value": "39.7 ± 2.9", "unit": "mmHg"},
      {"measurement": "Intraocular pressure (mmHg) at the time (min): 90, average ± S.D.", "setting": "[4]; [7]", "value": "39.7 ± 2.6", "unit": "mmHg"},
      {"measurement": "Intraocular pressure (mmHg) at the time (min): 120, average ± S.D.", "setting": "[4]; [8]", "value": "42.5 ± 3.5", "unit": "mmHg"},
      {"measurement": "Intraocular pressure (mmHg) at the time (min): 180, average ± S.D.", "setting": "[4]; [9]", "value": "46.0 ± 4.9", "unit": "mmHg"},
      {"measurement": "Intraocular pressure (mmHg) at the time (min): 240, average ± S.D.", "setting": "[4]; [10]", "value": "48.2 ± 4.4", "unit": "mmHg"},
      {"measurement": "Intraocular pressure (mmHg) at the time (min): 0, average ± S.D.", "setting": "[4]; [11]", "value": "49.0 ± 5.3", "unit": "mmHg"},
      {"measurement": "Intraocular pressure (mmHg) at the time (min): 30", "setting": "[4]; [12]", "value": "43 mmHg and 45 mmHg and 39 mmHg and 40 mmHg"},
      {"measurement": "Intraocular pressure (mmHg) at the time (min): 60", "setting": "[4]; [13]", "value": "42 mmHg (2×) and 39 mmHg and 36 mmHg"},
      {"measurement": "Intraocular pressure (mmHg) at the time (min): 90", "setting": "[4]; [14]", "value": "42 mmHg (2×) and 38 mmHg and 37 mmHg"},
      {"measurement": "Intraocular pressure (mmHg) at the time (min): 120", "setting": "[4]; [15]", "value": "46 mmHg and 45 mmHg and 39 mmHg and 40 mmHg"},
      {"measurement": "Intraocular pressure (mmHg) at the time (min): 180", "setting": "[4]; [16]", "value": "52 mmHg and 48 mmHg and 42 mmHg (2×)"},
      {"measurement": "Intraocular pressure (mmHg) at the time (min): 240", "setting": "[4]; [17]", "value": "53 mmHg and 51 mmHg and 45 mmHg and 44 mmHg"},
      {"measurement": "Intraocular pressure (mmHg) at the time (min): 0", "setting": "[4]; [18]", "value": "53 mmHg and 54 mmHg and 46 mmHg and 43 mmHg"}
    ]}
  ]
}
